According to patent US20230416785A1, “NUCLEASE AND APPLICATION THEREOF” (CRISP-HR Therapeutics, Inc., priority 2020, published 2023):
“Also recorded” adds a separate entry of the source.

Columns and labels:
Assay type in all cases: cell-based, human
H1299 cells = assay: Cellular viability of transfected H1299 cells (resazurin assay); conditions: for cellular viability compared to RLucRT alone: H1299 cells, AAVS1 G1 or G2 plus RLucRT, two days
Excerpt: Next the viability of transfected cells was quantified via resazurin after two days, then cells were washed with PBS, then lysed and luminescence quantified via plate reader (FIG. 4B). […] Next Luminescence was quantified via the Renilla-Glo Luciferase Assay System (Promega) using a 96 well plate reader with luminescence capabilities (Tecan). After data collection, raw luminescence was background subtracted from non-transfected control cells, corrected for cellular viability, and plotted in FIG. 4D.
Unless otherwise noted, adherent cells (A549 or H1299) were seeded in 96 well plates and grown in either 50/50 F-12/DMEM or RPMI-1640 respectively, supplemented with 5% FBS and grown to roughly 70% confluency. Cells were then transfected with either Cal-Phos as described in Chen 2012 or Lipofectamine 3000 (Thermofisher). Fresh media was exchanged the next day and cellular viability was quantified on day 2.
20 μL of 0.15 mg/mL Resazurin solution was added to cells either plated in 96 well plates for all cell lines, which were then incubated for ˜4 hours at 37° C. Cellular toxicity was quantified using a Tecan SpectraFlour Plus plate reader (Tecan) using a 535/595 filter set. Raw data was then normalized to the mean of the untransfected controls and plotted as described.
After two days, cellular viability was quantified via Resazurin, then washed with PBS and lysed with 25 μL of cell lysis buffer, and luciferase activity was quantified via Renilla Luciferase Assay (Promega) and using a Tecan Infinite Mplex plate reader.

endogenous H2B = assay: H2B-mNeon knock-in HDR quantification in K562 cells; conditions: H2B-mNeon RT
Method: After two days, cells were fixed in 4% PFA washed in PBS, then directly imaged, with cells showing nuclear localized fluorescence counted as successful HDR events.
K562 were grown in 24 well plates with RPMI-1640 supplemented with 5% FBS until roughly 70% confluent. At that time cells were either electroporated using the mNeon system (Invitrogen) using optimized settings for K562 cells, or lipofectamine 3000 again following manufactures instructions. Cells were then returned to 24 well plates with fresh media and grown for at least two days before being used in downstream analysis.
After 2 days, cells attached to coverslips coated with 0.01% poly-1-lysine, and were fixed in 4% PFA (Thermofisher) for 15 minutes at RT. After fixation, cells were washed 3× in PBS, mounted in 50% glycerol and imaged on a Nikon Eclipse E600 with standard FITC filters. For quantification, random patches of cells (usually between 8-15 cells per image) were identified via Brightfield, then fluoresce images were taken with constant illumination and exposure time (100%, and 110 ms respectively).

AAVS1 = assay: RLucRT HDR assay in A549 cells; conditions: G1
Beta-Catenin1 = assay: Beta-Catenin1:mCherry knock-in in HEK293 cells
Cadherin1 = assay: Cadherin1:mCherry HDR in H1299 cells
Method: After three days, media was replaced with HBSS (to reduce background for imaging) imaged using an EVOS M5000 imaging system. Imaging was performed by randomly finding and focusing on at least ten different sections per well using a 10× magnification lens, after which both brightfield and RFP images were acquired. Imaged were quantified by hand, using control images as the basis for RFP/mCherry background fluorescence.

CDH1 = assay: CDH1:mCherry knock-in in HEK293 cells; conditions: Ecad-G1
Method: After three days, media was replaced with HBSS (to reduce background for imaging) imaged using an Cytation5 imaging system. Imaging was performed by taking a 6×6 stitched image in the middle of the well using an 10× magnification lens, where both brightfield and RFP images were acquired. HDR rates were quantified via ImageJ, two independent replicates were performed per treatment. FIG. 13A illustrates a Cadherin1:mCherry RT design showing the human genomic region surrounding the last exon (exon 16) of Cadherin1. Two different gRNAs are denoted by black arrows (G1, G2), with arrow direction indicating the targeted strand. A repair template was constructed containing about 750 bp long 5′ and 3′ Homology arms, exon 16 of Cadherin1, silent mutations introduced to prevent gRNA binding to the RT, and a direct fusion of the fluorescent protein mCherry. FIG. 13B illustrates quantification of Cadherin1:mCherry HDR rate in H1299 cells showing the average mCherry+ cells per image section (>10 for all conditions) imaged at day 3 post transfection.

[1] = system: Safe Harbor Site (SHS)-231; assay: SHS-231 mNeon knock-in in H1299 cells
Excerpt: After reaching confluency, cells were tryspinized and seeded in 6 well plates, which were then imaged at 10× magnification using a Leica THUNDER Epifluorescent microscope. After imaging, thresholds and ROIs for mNeon+ cells were generated using FIJI (ImageJ).
After 7 days, cells were tryspinized and transferred to 6 well plates, and grown for an additional 7 days. On Day 14, media was replaced with HBSS (to reduce background for imaging) and imaged using a Cytation5 imaging system. Imaging was performed by taking a 6×6 stitched image in the middle of the well using an 10× magnification lens, where both brightfield and RFP images were acquired. HDR rates were quantified via ImageJ, two independent replicates were performed per treatment.

U2OS cells = assay: RPA foci quantification in U2OS cells
Method: After two days cells, cells were prepared for imaging as in Murkherjee et al 2015. Cytoplasm was extracted via two sequential 10 minute washes on ice consisting of Extraction Buffer 1: 10 mM PIPES, pH 7.0; 100 mM NaCl; 300 mM Sucrose; 3 mM MgCl2; 1 mM EGTA, 0.5% Triton X-100 and Extraction Buffer 2: 10 mM Tris-HCl, pH 7.5; 10 mM NaCl; 3 mM MgCl2, 1% Tween 40, 0.5% sodium deoxycholate. Cells were then fixed using 4% PFA for 20 minutes at RT, then washed three times with PBST, blocked in 5% goat-serum for 30 minutes at RT, then incubated overnight at 4° C. with 1:1000 dilution of mouse anti-RPA (Calbiochem; Catalog no: NA191). Next day cells were washed 5× with PBST with 20 minutes per wash, then incubated overnight at 4° C. with a 1:1000 dilution of anti-mouse Alexa fluor 568 (Thermo Fisher). Cells were washed next day cells were washed 5× with PBST with 20 minutes per wash, then mounted in Vectashield with DAPI (Vector Labs; Catalog no: H-1200), and imaged at 10× using an Leica Stellaris Confocal Microscope. Foci per cell were quantified using a custom script to identify number of RPA foci per cell. […] After two days cells were fixed, then cytoplasm extracted on ice, then remaining nuclei were stained for RPA. At the end of staining, nuclei were labeled with DAPI and cells were imaged via confocal microscopy. Post-imaging nuclei identification and RPA thresholding allowed quantification of the number of RPA foci per nuclei.

[2] = comparison with Dna2 fusions, day 3
[3] = SHS-231 G1, 14 Days, stitched images
[4] = SHS-231, hH2B-G4 or B-Catenin1, vs non-treated control cells

Substance: Cas9-HR 8: hExo1(1-352)-Cas9 fusion of FIG. 1A; E. coli codon optimized vectors SEQ ID NO: 68 and 69
- toxicity in H1299 cells compared to A549 (H1299 cells; H1299 cells (lack functional p53 gene), H2B-G4 guide): small reduction
- cellular viability compared to RLucRT alone (H1299 cells): slightly reduced
- cellular viability compared to RLucRT alone (H1299 cells; listed as Cas9-HR8): no gross changes in cellular viability
- PCR of 5′ and 3′ knock-in junctions (endogenous H2B; genome specific plus RT specific primers): Successful amplification
- HDR rate (cells with nuclear localized mNeon fluorescence) (endogenous H2B; hH2B-G4, two days, compared to Cas9-HR 4 or Cas9): significant increase in HDR rate
- HDR rates compared to Cas9 (normalized luminescence) (AAVS1): ~2.5 ×
- HDR rates compared to Cas9 (normalized knock-in rates) (Beta-Catenin1; B-Cat-G3): ~2.5 ×
- absolute mCherry+ cells relative to Cas9-NT or repair template alone (Beta-Catenin1; Beta-Catenin-G1): significant increases in mCherry+ cells
- numbers of mCherry+ cells compared to repair template (Beta-Catenin1; Beta-Catenin-G1): significantly increased numbers of mCherry+ cells
- mCherry+ cells, whole well imaging (Cadherin1; H1299 cells, 12 well plate, Ecad-G1, 4 Days after transfection): significant amounts of mCherry+ cells; also recorded: significantly higher amounts of mCherry+ cells
- fold change in mCherry+ cells relative to Cas9 (Cadherin1; H1299 cells, G1, day 3): ~2.3 fold
- fold increase in mCherry+ cells relative to Cas9 (Cadherin1; H1299 cells, all guide polynucleotides, day 3): > 1.5 fold
- mCherry+ cells compared to Cas9 (Cadherin1; H1299 cells, all three gRNAs (so in the source), day 3): significant increases in mCherry+ cells
- positive cell count compared to Cadherin1:mCherry alone (Cadherin1; H1299 cells, average mCherry+ cells per image section, day 3): significant increases in positive cell count
- normalized Cadherin1:mCherry HDR rate (fold change compared to Cas9) (Cadherin1; comparison with Dna2 fusions): significantly higher HDR rate
- mCherry+ cell count compared to Cadherin1:mCherry RT alone (Cadherin1; [2]): significant increases in mCherry+ cell count
- mCherry+ cells compared to Cas9 (Cadherin1; [2]): significant increases in mCherry+ cells
- HDR rates compared to Cas9 (normalized knock-in rates) (CDH1): ~3.5 ×
- absolute mCherry+ cells relative to Cas9-NT or repair template alone (CDH1): significant increases in mCherry+ cells
- numbers of mCherry+ cells compared to repair template (CDH1): significantly increased numbers of mCherry+ cells
- cellular fluorescence (expression) levels of mNeon+ cells compared to Cas9 ([1]; 14 days): much more uniform and lower expression levels
- absolute numbers of mNeon+ cells ([1]; SHS-231-G1, SHS-231-mNeon RT, 14 days post-transfection): 3652
- mNeon cell counts normalized to Cas9 ([1]; SHS-231-G2, two independent experiments): increase of HDR rates
- GFP+ cells compared to Cas9 [1, 3]: significantly more GFP+ cells
- total cells compared to Cas9 [1, 3]: significantly more total cells
- percent cells with 1-10 RPA foci (U2OS cells; [4]): increased the percentage of cells with RPA foci
- percent cells with any RPA foci (U2OS cells; [4]): increased the percentage of cells with RPA foci
- percent cells with 11-100 RPA foci compared to Cas9 (U2OS cells; targeting hH2B and Beta-Catenin1): significant decrease in cells with 11-100 RPA foci
